Measured values taken from ChEMBL document CHEMBL6114985, “From Dyrk1A inhibitors to a novel class of antiviral agents: Targeting Enterovirus EV-A71 with 2-aryl-substituted thiophene scaffolds” (Eur J Med Chem, 2025).

Assays:
Enterovirus A71 = assay: Antiviral activity against Enterovirus A71 TW/2231/98 infected in human RD cells assessed as reduction in cytopathic effect incubated for 3 days; type: functional, organism-based; details: Enterovirus A, TW/2231/98, RD, 72 h
[1] = Cytotoxicity against human RD cells assessed as reduction in cell growth incubated for 3 days by MTT assay; type: toxicity, cell-based; details: time 3 day
[2] = Selectivity index, ratio of CC50 for human RD cells to EC50 for antiviral activity against enterovirus A71 TW/2231/98 infected in human RD cells; type: toxicity, cell-based; details: read-out: Ratio CC50/EC50

Structure (SMILES) | EC50 (Enterovirus A71) [µM] | CC50 at 72 h [1] [µM] | selectivity ratio [2]
COc1cc(C(=O)Nc2cncc(-c3cccs3)c2)ccc1C | > 10 | – | –
COc1ccc(F)c(C(=O)Nc2cncc(-c3cc(-c4cnccc4C)cs3)c2)c1 | 9.1 | 18.1 | 2
COc1cccc(C(=O)Nc2cncc(-c3cccs3)c2)c1F | 4.7 | 52.8 | 11.2
COc1ccc(C(=O)Nc2cncc(-c3cc(-c4cccnc4)cs3)c2)cc1OC | > 10 | – | –
COc1ccc(F)c(C(=O)Nc2cncc(-c3cncs3)c2)c1 | > 10 | – | –
COc1ccc(F)c(C(=O)Nc2ccnc(-c3cccs3)c2)c1 | > 10 | – | –
COc1ccc(F)c(C(=O)Nc2cncc(-c3cc(-c4ccccc4)cs3)c2)c1 | > 10 | – | –
COc1ccc(F)c(C(=O)Nc2cncc(-c3nccs3)c2)c1 | > 10 | – | –
COc1ccc(F)c(C(=O)Nc2cncc(-c3cc4ccccc4s3)c2)c1 | 8.7 | 47.3 | 5.4
COc1cc(C(=O)Nc2cncc(-c3cc(-c4cccnc4)cs3)c2)ccc1C | > 10 | – | –
COc1c(F)ccc(C(=O)Nc2cncc(-c3cc(-c4cccnc4)cs3)c2)c1F | > 10 | – | –
COc1ccc(C(=O)Nc2cncc(-c3cc(-c4cccnc4)cs3)c2)cc1F | > 10 | – | –
COc1ccc(F)c(C(=O)Nc2cncc(-c3cccs3)n2)c1 | > 10 | – | –
COc1ccc(F)c(C(=O)Nc2cncc(-c3cc(-c4ccncc4)cs3)c2)c1 | > 10 | – | –
COc1ccc(F)c(S(=O)(=O)Nc2cncc(-c3cccs3)c2)c1 | > 10 | – | –
CC(C)(C)Oc1ccc(C(=O)Nc2cncc(-c3cc(-c4cccnc4)cs3)c2)cc1 | > 10 | – | –
COc1cc(OC)cc(C(=O)Nc2cncc(-c3cc(-c4cccnc4)cs3)c2)c1 | > 10 | – | –
COc1ccc(C(=O)Nc2cncc(-c3cc(-c4cccnc4)cs3)c2)c(F)c1 | > 10 | – | –

Structure (SMILES) | EC50 (Enterovirus A71) [µM] | CC50 at 72 h [1] [µM] | selectivity ratio [2]
O=C(Nc1cncc(-c2cc(-c3cccnc3)cs2)c1)c1ccc(O)cc1 | > 10 | > 10 | –
COc1ccc(F)c(C(=O)Nc2cncc(-c3ccccc3)c2)c1 | > 10 | – | –
COc1cccc(C(=O)Nc2cncc(-c3cc(-c4cccnc4)cs3)c2)c1F | 7.2 | 21.3 | 3
COc1ccc(F)c(C(=O)Nc2cncc(-c3cc(-c4cccnc4F)cs3)c2)c1 | 8.7 | > 100 | > 11.5
COc1ccc(F)c(C(=O)Nc2cncc(-c3cn(-c4cccnc4)nn3)c2)c1 | > 10 | – | –
COc1ccc(Cl)c(C(=O)Nc2cncc(-c3cc(-c4cccnc4)cs3)c2)c1 | > 10 | – | –
COc1ccc(F)c(C(=O)N(C)c2cncc(-c3cc(-c4cccnc4)cs3)c2)c1 | > 10 | – | –
COc1cc(C(=O)Nc2cncc(-c3cc(Br)cs3)c2)ccc1C | > 10 | – | –
COc1ccc(F)c(CNc2cncc(-c3cccs3)c2)c1 | > 10 | – | –
COc1ccc(F)c(C(=O)Nc2cncc(-c3ncns3)c2)c1 | > 10 | – | –
COc1ccc(F)c(C(=O)Nc2cccc(-c3cccs3)n2)c1 | > 10 | – | –
O=C(Nc1cncc(-c2cc(-c3cccnc3)cs2)c1)c1ccc(OC(F)(F)F)cc1 | > 10 | – | –
CCOC(=O)c1ccc(OCCC2CCN(c3ccc(C)nn3)CC2)cc1 [PIRODAVIR] | 0.6 | > 10 | > 16.7
COc1cc(C(=O)Nc2cncc(-c3cc(-c4cccnc4)cs3)c2)ccc1F | > 10 | – | –
COc1cccc(C(=O)Nc2cncc(-c3cc(Br)cs3)c2)c1F | 8.9 | – | –
COc1ccc(F)c(C(=O)Nc2cncc(-c3cc(-c4cccnc4C)cs3)c2)c1 | 9.1 | 15.6 | 1.7
COc1ccc(F)c(C(=O)Nc2cncc(-c3cccnc3)c2)c1 | > 10 | – | –
COc1ccc(F)c(C(=O)Nc2cncc(-c3cc(-c4cn[nH]c4)cs3)c2)c1 | 5.4 | 19.6 | 3.6
